#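 Where inhibition never reached the appropriate level, the endpoint shown equals the highest concentration tested. Otherwise, values were interpolated linearly from a five-concentration, 48-hour dose response in 96-well plates. GI50: concentration for 50% inhibition of growth. TGI: concentration producing complete growth inhibition.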
# Assays:
# Assay in all cases: DTP human tumour cell line panel, 48 h
# A549 NSCLC = system: A549 NSCLC
# ACHN renal = system: ACHN renal
# M14 melanoma = system: M14 melanoma
# MALME-3M melanoma = system: MALME-3M melanoma
# MCF7 breast = system: MCF7 breast
# SK-MEL-5 melanoma = system: SK-MEL-5 melanoma
# SK-OV-3 ovarian = system: SK-OV-3 ovarian
# SW-620 colon = system: SW-620 colon
# UACC-62 melanoma = system: UACC-62 melanoma
# UO-31 renal = system: UO-31 renal
Structure (SMILES),GI50 (A549 NSCLC) [µM],TGI (A549 NSCLC) [µM],GI50 (ACHN renal) [µM],TGI (ACHN renal) [µM],GI50 (M14 melanoma) [µM],TGI (M14 melanoma) [µM],GI50 (MALME-3M melanoma) [µM],TGI (MALME-3M melanoma) [µM],GI50 (MCF7 breast) [µM],TGI (MCF7 breast) [µM],GI50 (SK-MEL-5 melanoma) [µM],TGI (SK-MEL-5 melanoma) [µM],GI50 (SK-OV-3 ovarian) [µM],TGI (SK-OV-3 ovarian) [µM],GI50 (SW-620 colon) [µM],TGI (SW-620 colon) [µM],GI50 (UACC-62 melanoma) [µM],TGI (UACC-62 melanoma) [µM],GI50 (UO-31 renal) [µM],TGI (UO-31 renal) [µM]
COc1cc2c3c(n(C)c(=O)c2cc1OC)-c1cc2c(cc1/C3=C\C(N)CN)OCO2 (stereo not given),3.5,21.1,0.73,2.82,2.23,7.26,0.284,4.04,0.51,7,2.8,8.53,2.45,13.1,0.689,11.9,0.707,3.66,4.44,> 36.5
CCC(/C=C/c1ccccc1)=N\Nc1ccc(Cl)c(Cl)c1,–,> 100,–,76.9,–,> 100,–,78.9,–,> 100,–,30,–,> 100,–,> 100,–,31.5,–,57.9
COc1cc(C2C3=C(COC3=O)Nc3cc4c(cc32)CCC4)cc2c1OCO2 (stereo not given),0.061,12.7,0.114,21.4,0.0743,3.48,19.1,74.6,0.0349,13.3,0.0382,0.264,0.0335,1.01,0.0413,13.2,0.051,17.7,1.05,26.5
Nc1n[nH]c2cccc(C#Cc3cccc(C(=O)Nc4cc(CN5CCOCC5)cc(C(F)(F)F)c4)c3)c12,5.32,19.7,3.06,11.8,2.13,8.32,1.63,9.88,3.28,15.6,4.34,16,15.5,34.8,4.59,24.3,1.99,8.34,2.03,11.1
CCCCNC(=O)NS(=O)(=O)c1ccc(N2N=C(c3cc(C)ccc3C)CC2c2cc(OC)c(OC)c(OC)c2)cc1 (stereo not given),2.53,9.78,3.69,12.5,2.14,5.97,2.4,6.83,2.06,5.58,2.54,7.01,3.53,10.1,3.26,12.8,1.83,4.27,3.07,12.3
c1ccc(CSc2nnc3c4ccccc4c4ccccc4c3n2)cc1,–,> 100,–,> 100,–,> 100,–,> 100,–,> 100,–,> 100,–,50,–,> 100,–,> 100,–,> 100
CCN1C(=O)N(CC)C2C1NN=c1s/c(=C\c3cc4ccccc4[nH]3)c(=O)n12 (stereo not given),0.0433,> 100,< 0.0157,20.3,0.0237,> 100,0.0388,36.9,< 0.01,14.6,0.0202,0.063,0.0246,17.3,0.0277,> 100,< 0.0111,7.83,0.0523,10.4
CCCc1cc(=O)n2c(C(=O)Nc3ccccc3OC)c(C(=O)Nc3ccc(F)cc3)sc2n1,5.27,20.2,5.11,18.7,23.3,110,59.5,> 160,14.6,115,48.6,> 160,22.2,96.7,31,> 160,4.24,22.7,23.4,81.8
O=c1cc(N=Nc2ccc(O)cc2)[nH]c(=O)[nH]1,–,> 100,–,> 100,–,> 100,–,89.2,–,> 100,–,> 100,–,> 100,–,> 100,–,> 100,–,> 100
Cn1cc(-c2ccc(-c3cn(C)c4ccc(Cl)cc34)s2)c2cc(Cl)ccc21,> 100,> 100,> 100,> 100,> 100,> 100,> 100,> 100,> 100,> 100,> 100,> 100,> 100,> 100,> 100,> 100,> 100,> 100,> 100,> 100
O=C(c1cccnc1)c1cc(-c2ccccn2)c(=O)n2ccccc12,> 100,> 100,> 100,> 100,> 100,> 100,> 100,> 100,> 100,> 100,> 100,> 100,> 100,> 100,> 100,> 100,> 100,> 100,> 100,> 100
COc1ccc2c(c1)C(C)Cc1c(Cl)nc(C)nc1N2C (stereo not given),3,24.4,5.61,> 100,1.34,12.4,12.4,37.8,0.791,32.7,2.55,11.2,2.79,26.7,2.45,24.4,0.665,36.2,3.99,36.1
Cc1ccc2c(c1)C(=O)c1c-2n(CCCBr)c(=O)c2cc([N+](=O)[O-])ccc12,> 100,> 100,23.3,> 100,45.8,> 100,> 100,> 100,4.46,> 100,33,> 100,> 100,> 100,51.6,> 100,26.1,> 100,27.5,> 100
COc1cc(C2CC(c3ccc(N(C)C)cc3)=NN2C(C)=O)cc(OC)c1OC (stereo not given),3.36,> 100,3.57,> 100,1.39,> 100,> 100,> 100,0.577,> 100,0.804,17.6,5.46,> 100,0.928,> 100,1.48,> 100,3.59,> 100
CCNCCNc1cc(C2CCCCC2)c(C#N)c2nc3ccccc3n12,2.19,4.76,1.79,3.86,1.93,3.67,1.8,3.48,1.53,3.27,1.71,3.1,1.81,3.48,1.44,3.15,1.9,3.75,1.66,3.36
O=C(N/N=C/c1cc([N+](=O)[O-])ccc1O)c1cccc2ccccc12,4.56,> 100,3.08,44.7,2.87,68.4,3.12,21.7,2.49,13.4,3.15,14.3,4,33.3,3.7,> 100,2.98,26.4,1.8,19.5
CS(=O)(=O)Nc1ccc(N=Cc2c(O)[nH]c3ccccc23)cc1,> 25,> 25,> 25,> 25,> 25,> 25,> 25,> 25,> 25,> 25,> 25,> 25,> 25,> 25,> 25,> 25,> 25,> 25,> 8.56,> 25
CCN(CC)c1ccc(C(=N)c2ccc(N(C)C)cc2)cc1,1.62,11.4,2.34,12,0.167,2.06,0.205,4.76,0.197,7.25,0.159,1.94,2.15,10.4,0.174,5.63,1.35,7.03,1.45,7.73

# Source: PubChem BioAssay (NCI)
